“And” between values parts separate entries of the source, which are not always exact repeats. Identical values can stand only once. Inconclusive results and toxic doses are left out. Cut-off read from the data, not from the text of the source: active = T/C of 150% or more; inactive = T/C below 125%.
Test system: L1210 leukemia ip in BDF1 mice, survival T/C
Assay: NCI In Vivo Anticancer Drug Screen. Data for tumor model L1210 Leukemia (intraperitoneal) in B6D2F1 (BDF1) mice
Details: endpoint: mean survival time, higher = longer survival
How it was run: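 Read-out is survival time, reported as the treated-group measurement over the vehicle-control measurement.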

[1] = dose: 100.0 mg/kg/injection, schedule: Q01DX001 (ip), vehicle: saline with Tween-80
[2] = dose: 100.0 mg/kg/injection, schedule: Q01DX009 (ip), vehicle: saline with Tween-80
[3] = dose: 200.0 mg/kg/injection, schedule: Q01DX001 (ip), vehicle: saline with Tween-80
[4] = dose: 200.0 mg/kg/injection, schedule: Q01DX009 (ip), vehicle: saline with Tween-80
[5] = dose: 400.0 mg/kg/injection, schedule: Q01DX009 (ip), vehicle: saline with Tween-80
[6] = dose: 100.0 mg/kg/injection, schedule: Q01DX009 (ip), vehicle: Klucel (hydroxypropylcellulose) (HPC)
[7] = dose: 100.0 mg/kg/injection, schedule: Q04DX003 (ip), vehicle: Klucel (hydroxypropylcellulose) (HPC)
[8] = dose: 200.0 mg/kg/injection, schedule: Q01DX009 (ip), vehicle: Klucel (hydroxypropylcellulose) (HPC)
[9] = dose: 200.0 mg/kg/injection, schedule: Q04DX003 (ip), vehicle: Klucel (hydroxypropylcellulose) (HPC)
[10] = dose: 400.0 mg/kg/injection, schedule: Q01DX009 (ip), vehicle: Klucel (hydroxypropylcellulose) (HPC)
[11] = dose: 400.0 mg/kg/injection, schedule: Q04DX003 (ip), vehicle: Klucel (hydroxypropylcellulose) (HPC)
[12] = dose: 100.0 mg/kg/injection, schedule: Q01DX001 (ip), vehicle: Klucel (hydroxypropylcellulose) (HPC)
[13] = dose: 200.0 mg/kg/injection, schedule: Q01DX001 (ip), vehicle: Klucel (hydroxypropylcellulose) (HPC)
[14] = dose: 400.0 mg/kg/injection, schedule: Q01DX001 (ip), vehicle: Klucel (hydroxypropylcellulose) (HPC)

Measured: T/C

O=C(O)C1C(C(=O)O)C2(c3ccccc3)c3ccccc3C12 (configuration not stated)
inactive: dose: 9.38 mg/kg/injection, schedule: Q01DX001 (ip), vehicle: other 92 % of control | dose: 18.75 mg/kg/injection, schedule: Q01DX001 (ip), vehicle: other 92 % of control | dose: 37.5 mg/kg/injection, schedule: Q01DX001 (ip), vehicle: other 102 % of control

CCCCCCCC/C=C\CCCCCCCC(=O)OCC#CCOC(=O)CCCCCCC/C=C/CCCCCCCC
inactive: [1] 94 % of control | [2] 95 % of control and 101 % of control | dose: 100.0 mg/kg/injection, schedule: Q04DX002 (ip), vehicle: saline with Tween-80 97 % of control and 102 % of control | [3] 91 % of control | [4] 93 % of control and 94 % of control | dose: 200.0 mg/kg/injection, schedule: Q04DX002 (ip), vehicle: saline with Tween-80 97 % of control and 104 % of control | dose: 400.0 mg/kg/injection, schedule: Q01DX001 (ip), vehicle: saline with Tween-80 94 % of control | [5] 95 % of control and 97 % of control | dose: 400.0 mg/kg/injection, schedule: Q04DX002 (ip), vehicle: saline with Tween-80 96 % of control and 108 % of control

Cc1ccc(C(Br)C2=CC(C)(C)c3ccccc3C2=O)cc1 (configuration not stated)
inactive: [6] 106 % of control | [7] 106 % of control | [8] 101 % of control | [9] 104 % of control | [10] 98 % of control | [11] 104 % of control

O=C1CCNc2cc(Cl)ccc21
inactive: [12] 96 % of control | [6] 98 % of control | [13] 95 % of control | [8] 95 % of control | [14] 104 % of control

COc1ccc(O)cc1C
inactive: dose: 100.0 mg/kg/injection, schedule: Q04DX003 (ip), vehicle: other 104 % of control | dose: 200.0 mg/kg/injection, schedule: Q04DX003 (ip), vehicle: other 107 % of control | dose: 400.0 mg/kg/injection, schedule: Q04DX003 (ip), vehicle: other 117 % of control

COC(=O)C(C)C(C)=O (configuration not stated)
inactive: dose: 100.0 mg/kg/injection, schedule: Q01DX009 (sc), vehicle: olive oil, sesame oil, peanut oil 106 % of control | dose: 100.0 mg/kg/injection, schedule: Q04DX003 (sc), vehicle: olive oil, sesame oil, peanut oil 98 % of control | dose: 200.0 mg/kg/injection, schedule: Q01DX009 (sc), vehicle: olive oil, sesame oil, peanut oil 107 % of control | dose: 200.0 mg/kg/injection, schedule: Q04DX003 (sc), vehicle: olive oil, sesame oil, peanut oil 101 % of control | dose: 400.0 mg/kg/injection, schedule: Q01DX009 (sc), vehicle: olive oil, sesame oil, peanut oil 106 % of control | dose: 400.0 mg/kg/injection, schedule: Q04DX003 (sc), vehicle: olive oil, sesame oil, peanut oil 98 % of control

Cc1c(C(=O)O)[nH]c(=O)[nH]c1=O
inactive: dose: 100.0 mg/kg/injection, schedule: Q01DX Z (ip), vehicle: methylcellulose (MC) 90 % of control | dose: 200.0 mg/kg/injection, schedule: Q01DX Z (ip), vehicle: methylcellulose (MC) 97 % of control

CCOC(=O)c1cnc(SC)nc1Nc1ccc(Br)cc1
inactive: dose: 50.0 mg/kg/injection, schedule: Q01DX009 (ip), vehicle: Klucel (hydroxypropylcellulose) (HPC) 93 % of control | [6] 92 % of control | [7] 124 % of control | [8] 88 % of control | [9] 124 % of control | [11] 87 % of control

COc1cc(OC)c(NC(=O)c2c(Br)c(Br)c(Br)c(Br)c2C(=O)O)cc1Cl
inactive: [6] 107 % of control | [8] 94 % of control | [10] 95 % of control

Cc1cc(Cl)cc(C)c1OC(=O)Nc1cccc(C(F)(F)F)c1
inactive: [2] 112 % of control | [4] 106 % of control | [5] 101 % of control

CC(C)(C)c1cc(/C=N/n2c(-c3ccccc3)nc3ccccc3c2=O)cc(C(C)(C)C)c1O
inactive: [12] 89 % of control | [6] 89 % of control and 91 % of control | dose: 100.0 mg/kg/injection, schedule: Q04DX002 (ip), vehicle: Klucel (hydroxypropylcellulose) (HPC) 95 % of control | [13] 89 % of control | [8] 95 % of control and 91 % of control | dose: 200.0 mg/kg/injection, schedule: Q04DX002 (ip), vehicle: Klucel (hydroxypropylcellulose) (HPC) 98 % of control | [14] 93 % of control | dose: 400.0 mg/kg/injection, schedule: Q04DX002 (ip), vehicle: Klucel (hydroxypropylcellulose) (HPC) 97 % of control and 100 % of control

COc1ccc(-n2cc3c(=O)nccc-3c3ccccc32)cc1OC
inactive: dose: 75.0 mg/kg/injection, schedule: Q01DX001 (ip), vehicle: saline 95 % of control | dose: 150.0 mg/kg/injection, schedule: Q01DX001 (ip), vehicle: saline 89 % of control

Cc1ccc(NC(=O)Nc2ccc(C3=NCCN3)cc2)cc1NC(=O)Nc1ccc(C2=NCCN2)cc1
inactive: dose: 2.25 mg/kg/injection, schedule: Q01DX Z (ip), vehicle: water 105 % of control | dose: 4.5 mg/kg/injection, schedule: Q01DX Z (ip), vehicle: water 102 % of control | dose: 9.0 mg/kg/injection, schedule: Q01DX Z (ip), vehicle: water 92 % of control | dose: 18.0 mg/kg/injection, schedule: Q01DX Z (ip), vehicle: water 100 % of control

CCOC(=O)c1cnc(SC)nc1Nc1ccccc1I
inactive: [7] 101 % of control | [9] 97 % of control | [11] 103 % of control

CCCCCCC(=O)C1OC1CCCCCCCCC(=O)O (configuration not stated)
inactive: dose: 100.0 mg/kg/injection, schedule: Q04DX002 (ip), vehicle: other 112 % of control | dose: 400.0 mg/kg/injection, schedule: Q04DX002 (ip), vehicle: other 94 % of control

O/N=C/c1nc2ccccc2s1
inactive: [7] 105 % of control | [9] 91 % of control | [11] 118 % of control

CC(=O)OCC(Cl)C(Cl)CCl (configuration not stated)
inactive: [7] 96 % of control | [9] 95 % of control | [11] 95 % of control

CCCCCCCCCCCCCCCCOc1ccc(C(=S)N2CCOCC2)cc1Cl
inactive: [7] 104 % of control | [9] 91 % of control | [11] 86 % of control

CCN(CC)c1ccc(N)cc1
inactive: dose: 6.25 mg/kg/injection, schedule: Q01DX009 (ip), vehicle: saline with Tween-80 112 % of control | dose: 12.5 mg/kg/injection, schedule: Q01DX009 (ip), vehicle: saline with Tween-80 102 % of control | dose: 12.5 mg/kg/injection, schedule: Q04DX003 (ip), vehicle: saline with Tween-80 100 % of control | dose: 25.0 mg/kg/injection, schedule: Q01DX009 (ip), vehicle: saline with Tween-80 104 % of control | dose: 25.0 mg/kg/injection, schedule: Q04DX003 (ip), vehicle: saline with Tween-80 94 % of control

OC1CCCC23CCC12CC3 (configuration not stated)
inactive: dose: 50.0 mg/kg/injection, schedule: Q01DX001 (ip), vehicle: saline with Tween-80 101 % of control | [1] 99 % of control | [3] 96 % of control

c1cc2c([nH]1)CCCC2
inactive: dose: 75.0 mg/kg/injection, schedule: Q01DX001 (ip), vehicle: acetone 106 % of control | dose: 150.0 mg/kg/injection, schedule: Q01DX001 (ip), vehicle: acetone 111 % of control | dose: 300.0 mg/kg/injection, schedule: Q01DX001 (ip), vehicle: acetone 100 % of control

NC(=O)N/N=C/c1cc(=O)[nH]c(=O)[nH]1
inactive: dose: 100.0 mg/kg/injection, schedule: Q01DX001 (ip), vehicle: saline 88 % of control | dose: 200.0 mg/kg/injection, schedule: Q01DX001 (ip), vehicle: saline 97 % of control | dose: 400.0 mg/kg/injection, schedule: Q01DX001 (ip), vehicle: saline 97 % of control

O=C1c2cc([N+](=O)[O-])ccc2-c2cc(Br)cc(Br)c21
inactive: dose: 100.0 mg/kg/injection, schedule: Q01DX001 (ip), vehicle: carboxymethylcellulose (CMC) 93 % of control | dose: 200.0 mg/kg/injection, schedule: Q01DX001 (ip), vehicle: carboxymethylcellulose (CMC) 108 % of control | dose: 400.0 mg/kg/injection, schedule: Q01DX001 (ip), vehicle: carboxymethylcellulose (CMC) 98 % of control

C/C(C(=O)O)=C(\C)C(=O)O
inactive: dose: 100.0 mg/kg/injection, schedule: Q01DX009 (ip), vehicle: saline 104 % of control | dose: 100.0 mg/kg/injection, schedule: Q04DX002 (ip), vehicle: saline 108 % of control | dose: 200.0 mg/kg/injection, schedule: Q01DX009 (ip), vehicle: saline 97 % of control | dose: 200.0 mg/kg/injection, schedule: Q04DX002 (ip), vehicle: saline 104 % of control | dose: 400.0 mg/kg/injection, schedule: Q01DX009 (ip), vehicle: saline 108 % of control | dose: 400.0 mg/kg/injection, schedule: Q04DX002 (ip), vehicle: saline 101 % of control

From PubChem BioAssay AID248 (DTP/NCI, 2004)
